Toxic doses and inconclusive results are not listed.
System: P388 leukemia ip, CD2F1 mice, survival T/C
Assay: NCI In Vivo Anticancer Drug Screen. Data for tumor model P388 Leukemia (intraperitoneal) in CD2F1 (CDF1) mice
Conditions: endpoint: median survival time, higher = longer survival
Summary of the method: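 Mice carrying the transplanted tumor received test compound or vehicle. Survival was recorded in each group, and the value is the treated-group measurement divided by that of the vehicle-treated control group.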

[1] = dose: 100.0 mg/kg/injection, schedule: Q04DX003 (ip), vehicle: Klucel (hydroxypropylcellulose) (HPC)
[2] = dose: 200.0 mg/kg/injection, schedule: Q04DX003 (ip), vehicle: Klucel (hydroxypropylcellulose) (HPC)
[3] = dose: 100.0 mg/kg/injection, schedule: Q04DX002 (ip), vehicle: saline with Tween-80
[4] = dose: 200.0 mg/kg/injection, schedule: Q04DX002 (ip), vehicle: saline with Tween-80
[5] = dose: 400.0 mg/kg/injection, schedule: Q04DX002 (ip), vehicle: saline with Tween-80
[6] = dose: 50.0 mg/kg/injection, schedule: Q01DX009 (ip), vehicle: saline
[7] = dose: 100.0 mg/kg/injection, schedule: Q01DX009 (ip), vehicle: saline
[8] = dose: 60.0 mg/kg/injection, schedule: Q01DX005 (ip), vehicle: saline with Tween-80
[9] = dose: 120.0 mg/kg/injection, schedule: Q01DX005 (ip), vehicle: saline with Tween-80
[10] = dose: 50.0 mg/kg/injection, schedule: Q01DX009 (ip), vehicle: saline with Tween-80
[11] = dose: 100.0 mg/kg/injection, schedule: Q01DX009 (ip), vehicle: saline with Tween-80
[12] = dose: 100.0 mg/kg/injection, schedule: Q01DX001 (ip), vehicle: saline with Tween-80
[13] = dose: 400.0 mg/kg/injection, schedule: Q01DX001 (ip), vehicle: saline with Tween-80
[14] = dose: 240.0 mg/kg/injection, schedule: Q01DX005 (ip), vehicle: saline with Tween-80
[15] = dose: 200.0 mg/kg/injection, schedule: Q01DX009 (ip), vehicle: saline with Tween-80
[16] = dose: 100.0 mg/kg/injection, schedule: Q04DX002 (ip), vehicle: saline
[17] = dose: 200.0 mg/kg/injection, schedule: Q04DX002 (ip), vehicle: saline
[18] = dose: 100.0 mg/kg/injection, schedule: Q01DX001 (ip), vehicle: Klucel (hydroxypropylcellulose) (HPC)
[19] = dose: 200.0 mg/kg/injection, schedule: Q01DX001 (ip), vehicle: Klucel (hydroxypropylcellulose) (HPC)

## O=C(Nc1ccc(Cl)cc1)OCC1C2C=CC(C2)C1CO (stereo unspecified)
[1]
  T/C: 101 % of control
[2]
  T/C: 95 % of control
dose: 400.0 mg/kg/injection, schedule: Q04DX003 (ip), vehicle: Klucel (hydroxypropylcellulose) (HPC)
  T/C: 104 % of control

## CN1C(=O)C(Cc2cnc[nH]2)NC1=S (stereo unspecified)
dose: 60.0 mg/kg/injection, schedule: Q01DX005 (ip), vehicle: Klucel (hydroxypropylcellulose) (HPC)
  T/C: 101 % of control
dose: 120.0 mg/kg/injection, schedule: Q01DX005 (ip), vehicle: Klucel (hydroxypropylcellulose) (HPC)
  T/C: 111 % of control
dose: 240.0 mg/kg/injection, schedule: Q01DX005 (ip), vehicle: Klucel (hydroxypropylcellulose) (HPC)
  T/C: 93 % of control

## CSc1nc(NN)c2cnn(C3CCCCO3)c2n1 (stereo unspecified)
[3]
  T/C: 100 % of control
[4]
  T/C: 96 % of control
[5]
  T/C: 94 % of control

## O=C(S[Si](c1ccccc1)(c1ccccc1)c1ccccc1)c1ccccc1
[6]
  T/C: 102 % of control
[7]
  T/C: 110 % of control

## CCOC(=O)/C(C#N)=C/Nc1ccc(Cl)nc1Cl
[8]
  T/C: 89 % of control
[9]
  T/C: 86 % of control

## Cc1cc(C(=O)O)c(C)c2c1sc1ccccc12
[8]
  T/C: 101 % of control
[9]
  T/C: 114 % of control

## COC(=O)C(C#N)c1ccccn1 (stereo unspecified)
[10]
  T/C: 96 % of control
[11]
  T/C: 100 % of control

## ClC1=C(Cl)C(=C2CCCC2)C(Cl)=C1Cl
dose: 50.0 mg/kg/injection, schedule: Q01DX009 (ip), vehicle: Klucel (hydroxypropylcellulose) (HPC)
  T/C: 100 % of control
dose: 100.0 mg/kg/injection, schedule: Q01DX009 (ip), vehicle: Klucel (hydroxypropylcellulose) (HPC)
  T/C: 100 % of control
dose: 200.0 mg/kg/injection, schedule: Q01DX009 (ip), vehicle: Klucel (hydroxypropylcellulose) (HPC)
  T/C: 87 % of control

## C[n+]1c(-c2cccc(OCCCCCCCCOc3cccc(-c4c5cc(N)ccc5c5ccc(N)cc5[n+]4C)c3)c2)c2cc(N)ccc2c2ccc(N)cc21
dose: 0.09 mg/kg/injection, schedule: Q01DX009 (ip), vehicle: water
  T/C: 163 % of control
dose: 0.19 mg/kg/injection, schedule: Q01DX009 (ip), vehicle: water
  T/C: 154 % of control
dose: 0.38 mg/kg/injection, schedule: Q01DX009 (ip), vehicle: water
  T/C: 151 % of control
dose: 0.39 mg/kg/injection, schedule: Q01DX009 (ip), vehicle: water
  T/C: 170 % of control
dose: 0.75 mg/kg/injection, schedule: Q01DX009 (ip), vehicle: water
  T/C: 150 % of control
dose: 0.78 mg/kg/injection, schedule: Q01DX009 (ip), vehicle: water
  T/C: 179 % of control
dose: 1.5 mg/kg/injection, schedule: Q01DX009 (ip), vehicle: water
  T/C: 91 % of control
dose: 1.56 mg/kg/injection, schedule: Q01DX009 (ip), vehicle: water
  T/C: 213 % of control

## C[C@H](CCC1=NC(C)(C)CO1)C1CCC2[C@@H]3C(O)C[C@@H]4CC(O)CC[C@]4(C)C3CC[C@@]21C (stereo partly specified)
[8]
  T/C: 90 % of control
[9]
  T/C: 87 % of control

## COC(=O)C1C2C=CC(C1C(=O)OC)C1C3C(=O)N(N)C(=O)C3C21 (stereo unspecified)
dose: 50.0 mg/kg/injection, schedule: Q01DX005 (ip), vehicle: saline with Tween-80
  T/C: 100 % of control
dose: 100.0 mg/kg/injection, schedule: Q01DX005 (ip), vehicle: saline with Tween-80
  T/C: 96 % of control
dose: 200.0 mg/kg/injection, schedule: Q01DX005 (ip), vehicle: saline with Tween-80
  T/C: 91 % of control

## CN1C(=O)NC(c2ccc(Cl)cc2)(c2ccc(Cl)cc2)C1=O
dose: 5.0 mg/kg/injection, schedule: Q04DX003 (ip), vehicle: other
  T/C: 105 % of control
dose: 10.0 mg/kg/injection, schedule: Q04DX003 (ip), vehicle: other
  T/C: 104 % of control
dose: 20.0 mg/kg/injection, schedule: Q04DX003 (ip), vehicle: other
  T/C: 107 % of control
dose: 25.0 mg/kg/injection, schedule: Q04DX003 (ip), vehicle: other
  T/C: 101 % of control
dose: 40.0 mg/kg/injection, schedule: Q04DX003 (ip), vehicle: other
  T/C: 118 % of control
dose: 50.0 mg/kg/injection, schedule: Q04DX003 (ip), vehicle: other
  T/C: 119 % of control

## CCc1[nH]c2ccc(C)cc2c1C(=O)c1cccnc1
dose: 50.0 mg/kg/injection, schedule: Q04DX003 (ip), vehicle: Klucel (hydroxypropylcellulose) (HPC)
  T/C: 94 % of control
[1]
  T/C: 103 % of control
[2]
  T/C: 98 % of control

## CC(/C=N/Nc1ccccc1)=N\N=c1/scc(-c2ccccc2)n1Cc1ccccc1
[12]
  T/C: 93 % of control
dose: 200.0 mg/kg/injection, schedule: Q01DX001 (ip), vehicle: saline with Tween-80
  T/C: 97 % of control
[13]
  T/C: 93 % of control

## CS1(=O)=NC(=N)c2ccccc21 (stereo unspecified)
[6]
  T/C: 102 % of control
[7]
  T/C: 107 % of control

## COC(=O)Nn1c(C)c(C(=O)Nc2ccc(OC)cc2)c(C(=O)OC)c1C
[8]
  T/C: 97 % of control
[9]
  T/C: 100 % of control
[14]
  T/C: 97 % of control

## O=C1CCC(c2nc3ccccc3[nH]2)N1Cc1ccc(Cl)cc1 (stereo unspecified)
[8]
  T/C: 108 % of control
[9]
  T/C: 90 % of control
[14]
  T/C: 86 % of control

## CCOC(=O)N(O)c1ccc(C)cc1
[3]
  T/C: 109 % of control
[4]
  T/C: 112 % of control
[5]
  T/C: 124 % of control

## CCOC(=O)CC(C)C#N (stereo unspecified)
[10]
  T/C: 99 % of control
[11]
  T/C: 99 % of control
[15]
  T/C: 101 % of control

## CC/C(=N/NS(=O)(=O)c1ccc(C)cc1)c1ccc([N+](=O)[O-])cc1
[16]
  T/C: 100 % of control
[17]
  T/C: 105 % of control
dose: 400.0 mg/kg/injection, schedule: Q04DX002 (ip), vehicle: saline
  T/C: 100 % of control

## CC(=O)OCC12C3CC(=O)OC1C(OC(=O)C=C(C)C)C1C(C)=CC(=O)C(OC(C)=O)C1(C)C2C(=O)C(OC(C)=O)C3C (stereo unspecified)
dose: 0.5 mg/kg/injection, schedule: Q01DX009 (ip), vehicle: distilled water + Tween-80
  T/C: 100 % of control
dose: 1.0 mg/kg/injection, schedule: Q01DX009 (ip), vehicle: distilled water + Tween-80
  T/C: 97 % of control
dose: 2.0 mg/kg/injection, schedule: Q01DX009 (ip), vehicle: distilled water + Tween-80
  T/C: 102 % of control
dose: 4.0 mg/kg/injection, schedule: Q01DX009 (ip), vehicle: distilled water + Tween-80
  T/C: 101 % of control
dose: 8.0 mg/kg/injection, schedule: Q01DX009 (ip), vehicle: distilled water + Tween-80
  T/C: 102 % of control

## C(=C1CC(=Cc2ccccc2)C1)c1ccccc1
[18]
  T/C: 94 % of control
[19]
  T/C: 88 % of control
dose: 400.0 mg/kg/injection, schedule: Q01DX001 (ip), vehicle: Klucel (hydroxypropylcellulose) (HPC)
  T/C: 88 % of control

## O=C(CCCl)Nc1cc2ccccc2oc1=O
[8]
  T/C: 91 % of control
[9]
  T/C: 92 % of control
[14]
  T/C: 89 % of control

## CCCCOP(=O)(O)OCCCC.[Th]
dose: 25.0 mg/kg/injection, schedule: Q01DX001 (ip), vehicle: saline with Tween-80
  T/C: 113 % of control
dose: 50.0 mg/kg/injection, schedule: Q01DX001 (ip), vehicle: saline with Tween-80
  T/C: 100 % of control
[12]
  T/C: 102 % of control
[13]
  T/C: 97 % of control

## CCOC(=O)CC/C(=C/c1cccc2cc(OC)ccc12)[N+](=O)[O-]
dose: 50.0 mg/kg/injection, schedule: Q01DX001 (ip), vehicle: Klucel (hydroxypropylcellulose) (HPC)
  T/C: 100 % of control
[18]
  T/C: 101 % of control
[19]
  T/C: 104 % of control

## Cc1cc(C)n(-c2ccc(Cl)nn2)n1
[6]
  T/C: 99 % of control
[7]
  T/C: 95 % of control
dose: 200.0 mg/kg/injection, schedule: Q01DX009 (ip), vehicle: saline
  T/C: 100 % of control

## COc1ccc(C(O)C2CC(=O)NN=C2C)cc1OC (stereo unspecified)
[8]
  T/C: 100 % of control
[9]
  T/C: 100 % of control
[14]
  T/C: 99 % of control

## CC(=O)Nc1c(-c2ccccc2)[nH]c2ccccc12
[12]
  T/C: 99 % of control

## COC1C(CN(C)N=Nc2ccccc2C(N)=O)OC2OC(C)(C)OC21 (stereo unspecified)
[3]
  T/C: 94 % of control
[4]
  T/C: 91 % of control
[5]
  T/C: 91 % of control

## CCC(C)CN1CCc2c(c3c(c(OC)c2OC)CCC3)C1 (stereo unspecified)
dose: 50.0 mg/kg/injection, schedule: Q04DX002 (ip), vehicle: saline
  T/C: 101 % of control
[16]
  T/C: 102 % of control
[17]
  T/C: 96 % of control

## O=C1/C(=C/c2ccccc2)Cc2ccccc21
[11]
  T/C: 100 % of control
[15]
  T/C: 100 % of control
dose: 400.0 mg/kg/injection, schedule: Q01DX009 (ip), vehicle: saline with Tween-80
  T/C: 95 % of control

Source: PubChem BioAssay AID330 (DTP/NCI, 2004)
